Reference: the NIST ThermoML archive (doi:10.1021/acs.jced.9b00348)
± gives the expanded uncertainty stated by the source.

Assay: molar heat capacity at constant pressure
Conditions: 100 kPa, DSC

[F][Th]([F])([F])[F] [thorium tetraluoride]
molar heat capacity at constant pressure (1278 K, Crystal): 145 ± 21 J/K/mol | molar heat capacity at constant pressure (1478 K, Liquid): 168 ± 21 J/K/mol
